Reference: the supplement of paper PMC10307832

Columns and labels:
Assay in all cases: relative viability (nuclei count vs DMSO), 5 days (fraction); higher = more cells survive
[1] = compound: Cc1nc(C(=O)NCC(=O)O)c(O)c2ccc(Oc3ccccc3)cc12 [FG-4592] + CCNC(=O)c1noc(-c2cc(C(C)C)c(O)cc2O)c1-c1ccc(CN2CCOCC2)cc1 [Luminespib] (partner 0.01 µM)
Summary of the method: (§1)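 Relative viability divides the nuclei count in treated wells by that in vehicle wells. Lung cancer cell lines were seeded in 1536-well plates, dosed by pin tool the next day, and fixed and stained after 5 days in one step with final 0.05% Triton X-100, 1% formaldehyde and 1 ug/ml Hoechst. Dosing was a single drug or a fixed anchor-drug dose plus five library-drug doses (not always all listed) in √10 steps, and values are medians of duplicate plates imaged at 4×.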

[2] = compound: Cc1nc(C(=O)NCC(=O)O)c(O)c2ccc(Oc3ccccc3)cc12 [FG-4592] + Cc1nc(Nc2ncc(C(=O)Nc3c(C)cccc3Cl)s2)cc(N2CCN(CCO)CC2)n1 [Dasatinib] (partner 0.075 µM)
Summary of the method: as §1

[3] = compound: CC1=CC(=C(N1C2=CC=C(C=C2)Cl)C)C(=O)CN3CCCCC3 [IU1-47] + CS(=O)(=O)CCNCc1ccc(-c2ccc3ncnc(Nc4ccc(OCc5cccc(F)c5)c(Cl)c4)c3c2)o1 [Lapatinib] (partner 2 µM)
Summary of the method: as §1

[4] = compound: CC1=CC(=C(N1C2=CC=C(C=C2)Cl)C)C(=O)CN3CCCCC3 [IU1-47] + CC1(C)CCC(c2ccc(Cl)cc2)=C(CN2CCN(c3ccc(C(=O)NS(=O)(=O)c4ccc(N[C@H](CCN5CCOCC5)CSc5ccccc5)c(S(=O)(=O)C(F)(F)F)c4)cc3)CC2)C1 [Navitoclax] (partner 0.5 µM)
Summary of the method: as §1

Row | Cell Line | relative viability ([1]; first compound 0.08 µM) | relative viability ([1]; first compound 0.253 µM) | relative viability ([1]; first compound 2.53 µM) | relative viability ([1]; first compound 8 µM) | relative viability ([2]; first compound 0.08 µM) | relative viability ([2]; first compound 0.253 µM) | relative viability ([2]; first compound 2.53 µM) | relative viability ([2]; first compound 8 µM) | relative viability ([3]; first compound 0.08 µM) | relative viability ([3]; first compound 0.253 µM) | relative viability ([3]; first compound 0.8 µM) | relative viability ([3]; first compound 2.53 µM) | relative viability ([3]; first compound 8 µM) | relative viability ([4]; first compound 0.08 µM) | relative viability ([4]; first compound 0.253 µM) | relative viability ([4]; first compound 0.8 µM) | relative viability ([4]; first compound 2.53 µM) | relative viability ([4]; first compound 8 µM) | relative viability ([1]; first compound 0.8 µM) | relative viability ([2]; first compound 0.8 µM)
1 | LC-2-ad | 0.961 | 0.885 | 0.932 | 0.926 | 0.513 | 0.559 | 0.536 | 0.66 | 1.09 | 0.928 | 0.836 | 1.25 | 1.04 | 0.429 | 0.548 | 0.524 | 0.443 | 0.382 |  | 
2 | NCI-H1915 | 0.721 | 0.828 | 0.781 | 0.697 | 0.324 | 0.283 | 0.31 | 0.257 | 0.992 | 1.01 | 0.976 |  | 0.999 | 0.822 | 0.805 | 0.828 |  | 0.833 | 0.911 | 0.286
3 | NCI-H1793 | 0.155 | 0.227 | 0.157 | 0.185 | 0.37 | 0.311 | 0.354 | 0.328 | 0.525 | 0.594 | 0.648 |  | 0.566 | 0.412 | 0.358 | 0.445 |  | 0.424 |  | 
4 | NCI-H2023 | 0.617 | 0.634 | 0.773 | 0.599 | 0.612 | 0.529 | 0.522 | 0.377 | 0.924 | 0.872 | 0.805 | 0.334 | 0.994 | 1.02 | 0.934 | 1.05 | 1.02 | 1.1 | 0.698 | 0.54
5 | COR-L 105 | 0.779 | 0.696 | 0.847 | 0.776 | 0.309 | 0.306 | 0.258 | 0.286 | 0.312 | 0.405 | 0.382 | 0.328 | 0.333 | 0.896 | 0.809 | 0.865 | 0.81 | 0.68 | 0.752 | 0.294
6 | RERF-LC-KJ | 1.23 | 1.24 | 1.17 | 0.991 | 0.91 | 0.701 | 0.836 | 0.678 | 0.91 | 0.868 | 0.873 | 0.835 | 0.829 | 0.939 | 0.812 | 0.839 | 1.14 | 0.879 | 1.45 | 0.739
7 | LXF-289 | 0.65 | 0.675 | 0.596 | 0.711 | 0.22 | 0.186 | 0.168 | 0.189 | 0.935 | 0.921 | 0.877 | 0.911 | 0.819 | 0.993 | 1 | 0.985 | 0.92 | 0.975 | 0.712 | 0.19
8 | PC-14 | 0.136 | 0.177 | 0.197 | 0.16 | 0.274 | 0.195 | 0.311 | 0.343 | 0.273 | 0.32 | 0.407 | 0.304 | 0.304 | 1.22 | 1.14 | 1.16 | 1.06 | 0.932 | 0.143 | 0.275
9 | NCI-H1666 | 0.966 | 0.965 | 1 | 0.95 | 0.812 | 0.792 | 0.794 | 0.808 | 0.613 | 0.658 | 0.621 | 0.584 | 0.508 | 1.1 | 1.04 | 0.89 | 0.912 | 0.824 | 0.96 | 0.801
10 | NCI-H2085 | 0.439 | 0.47 | 0.426 | 0.462 | 0.17 | 0.228 | 0.254 | 0.264 | 0.7 | 0.77 | 0.941 | 0.681 | 0.685 | 1.15 | 1.22 | 1.13 | 1.19 | 1.01 | 0.389 | 0.196
11 | NCI-H1734 | 0.183 | 0.185 | 0.192 | 0.178 | 0.409 | 0.465 | 0.454 | 0.401 | 1.05 | 1.15 | 1.12 |  | 1.02 | 0.943 | 0.873 | 0.823 |  | 0.734 | 0.177 | 0.444
12 | NCI-H2126 | 0.918 | 0.904 | 0.759 | 0.603 | 0.642 | 0.578 | 0.506 | 0.384 | 0.802 | 0.767 | 0.807 | 0.523 | 0.753 | 0.987 | 0.823 | 0.897 | 0.545 | 0.809 | 0.887 | 0.476
13 | EMC-BAC-2 | 1.2 | 1.11 | 1.17 | 1.11 | 0.374 | 0.361 | 0.311 | 0.296 | 0.947 | 0.944 | 0.966 | 0.955 | 0.879 | 1.25 | 1.26 | 1.21 | 1.16 | 1.04 | 1.1 | 0.274
14 | NCI-H1993 | 0.806 | 0.868 | 0.984 | 0.869 | 0.513 | 0.631 | 0.547 | 0.396 | 0.82 | 0.754 | 0.741 | 0.815 | 0.748 | 0.876 | 0.938 | 0.893 | 0.979 | 0.895 | 0.771 | 0.473
15 | NCI-H520 | 0.22 | 0.209 | 0.204 | 0.201 | 0.171 | 0.206 | 0.157 | 0.157 | 0.774 | 0.858 | 1 | 0.879 | 0.59 | 1.22 | 1.12 | 1.26 | 1.02 | 0.981 |  | 0.133
